This note sets out measurements from PubChem BioAssay (NCI).

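A five-concentration, 48-hour dose response in 96-well plates underlies each endpoint, interpolated linearly between surrounding concentrations. At the TGI there is no net growth.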 Some results are limits rather than exact numbers.

Among the test systems are COLO 205 colon; NCI-H23 lung; SK-MEL-2 melanoma; HCT-116 colon; 786-0 renal; NCI-H522 lung; HCT-15 colon; HCC-2998 colon; NCI-H460 lung; SR leukemia.
What all share (test): DTP human tumour cell line panel, 48 h

In general, TGI refers to the concentration at which net growth stops. The low end stands for greater sensitivity of the cells, the high end for lower sensitivity of the cells. For the compound `COCN1C(=O)[C@@H]2C[C@@H](OC/C=C/CBr)CN2C(=O)c2ccccc21`, the TGI is 42.8 µM in the test on COLO 205 colon; 81.5 µM in the test on NCI-H23 lung; greater than 100 µM with SK-MEL-2 melanoma; 42.7 µM in the test on HCT-116 colon; 53.9 µM in the test with 786-0 renal; 25.9 µM in the test on NCI-H522 lung. This compound registered a TGI in the test with HCT-15 colon of 56.2 µM.
In the case of `CN(C)/C=C/c1ccnc2c1C(=O)c1ccccc1C2=O`, the TGI is greater than 55.1 µM in the test on COLO 205 colon; 22.6 µM with HCC-2998 colon; 7.17 µM in the test with NCI-H23 lung; 7.13 µM in the test on NCI-H460 lung; 18.3 µM in the test on SK-MEL-2 melanoma; 20.9 µM in the test with HCT-116 colon. Moreover, the total growth inhibition concentration (TGI) was 73.6 µM with 786-0 renal, 24.2 µM in the test with NCI-H522 lung and 31.5 µM in the test on HCT-15 colon.
Turning to `CC(C)(Oc1ccc(C2C[C@H]2Cl)cc1)C(=O)O` (stereo partly drawn), the TGI in the test with SR leukemia, in the test on COLO 205 colon, in the test on NCI-H460 lung, with SK-MEL-2 melanoma, in the test on HCT-116 colon and with 786-0 renal was greater than 100 µM each time. The TGI in the test on NCI-H522 lung and with HCT-15 colon was greater than 100 µM in each case.
In the case of `CC(=O)NC(Cc1ccccc1)C(=S)N1CCCC1` (stereo not drawn), the total growth inhibition concentration (TGI) in the test with COLO 205 colon, in the test with HCC-2998 colon, in the test on NCI-H23 lung, in the test with NCI-H460 lung, in the test with SK-MEL-2 melanoma and in the test on HCT-116 colon was greater than 100 µM throughout. Besides, the TGI in the test with 786-0 renal, with NCI-H522 lung and in the test with HCT-15 colon was greater than 100 µM throughout.
With `CN(C)CCCN1c2ccc3ccccc3c2Sc2cccc(Cl)c21`, the TGI turned out to be 3.51 µM with COLO 205 colon; 2.96 µM with HCC-2998 colon; 35.4 µM in the test with NCI-H23 lung; 3.25 µM in the test on NCI-H460 lung; 3.75 µM in the test with SK-MEL-2 melanoma; 14 µM in the test on HCT-116 colon. Also, the TGI with 786-0 renal was 8.84 µM; with NCI-H522 lung, 10.5 µM; with HCT-15 colon, 22.7 µM.
Regarding `CC1=C2CC3=C(C)C(=O)O[C@H]3C[C@@H](C)[C@@H]2CC1`, the concentration for total growth inhibition (TGI) in the test with SR leukemia, in the test on COLO 205 colon, in the test with HCC-2998 colon, with NCI-H23 lung, in the test with NCI-H460 lung and with SK-MEL-2 melanoma was greater than 100 µM each time. The TGI with HCT-116 colon, in the test on 786-0 renal and in the test on HCT-15 colon was greater than 100 µM in each case.
In the case of `O=C(CSCC(=O)N/N=C\c1cc(Br)cc(Br)c1O)N/N=C\c1cc(Br)cc(Br)c1O`, the TGI in the test on SR leukemia is 42 µM; in the test on COLO 205 colon, greater than 100 µM; in the test on NCI-H23 lung it was greater than 100 µM; in the test on NCI-H460 lung, greater than 100 µM; in the test on SK-MEL-2 melanoma, 42.7 µM; with HCT-116 colon, greater than 100 µM. The results for the TGI with 786-0 renal, with NCI-H522 lung and with HCT-15 colon were greater than 100 µM, 50.9 µM and greater than 100 µM, respectively.
On to `COC[C@@H](N=Cc1ccc(OC)cc1)C(C)C`, for which the TGI in the test on SR leukemia, in the test with COLO 205 colon, in the test with NCI-H23 lung, with NCI-H460 lung, with SK-MEL-2 melanoma and in the test on HCT-116 colon was greater than 100 µM in each case. The TGI in the test on 786-0 renal, with NCI-H522 lung and in the test with HCT-15 colon was greater than 100 µM each time.
On to `CC1=CC(=O)C[C@]2(C)[C@@H](O)CC(C(C)CO)C[C@@H]12` (stereo partly drawn), for which the TGI in the test on COLO 205 colon, in the test on HCC-2998 colon, in the test with NCI-H23 lung, in the test on NCI-H460 lung, in the test on SK-MEL-2 melanoma and with HCT-116 colon was greater than 100 µM throughout. For the same compound, the TGI in the test on 786-0 renal and with HCT-15 colon was greater than 100 µM throughout.
For the compound `COc1c(-c2ccc3c(c2)OCO3)oc2cc3c(c(OC)c2c1=O)OCO3`, the TGI with COLO 205 colon is greater than 100 µM; with HCC-2998 colon it was 87.4 µM; with NCI-H23 lung it was 53.5 µM; in the test on NCI-H460 lung it was 28 µM; in the test on SK-MEL-2 melanoma, 56.9 µM; with HCT-116 colon it was 39.3 µM. Also, the results for the TGI in the test on 786-0 renal, in the test with NCI-H522 lung and in the test on HCT-15 colon were greater than 100 µM, 52.6 µM and greater than 100 µM, respectively.
As for `CC(C)CCC[C@@H](C)[C@H]1CC[C@H]2[C@@H]3CC=C4CC(OCCCCN(O)CCCSC5OC(CO)C(O)C(O)C5O)CC[C@]4(C)[C@H]3CC[C@]12C` (stereo partly drawn), the TGI in the test on SR leukemia was greater than 100 µM; in the test with COLO 205 colon, 47.3 µM; in the test on NCI-H23 lung, greater than 100 µM; in the test with NCI-H460 lung, greater than 100 µM; in the test with SK-MEL-2 melanoma, 92.1 µM; with HCT-116 colon it was greater than 100 µM. The TGI is 32.5 µM with 786-0 renal, 49.6 µM in the test with NCI-H522 lung and greater than 100 µM with HCT-15 colon.
For the compound `CC(=S)NC1C(Oc2ccc3c(C)cc(=O)oc3c2)OC(CO)C(O)C1O` (stereo not drawn), the TGI with SR leukemia, with NCI-H460 lung, in the test with SK-MEL-2 melanoma, in the test with HCT-116 colon and in the test on HCT-15 colon was greater than 100 µM in each case.
Regarding `c1ccc(C2(c3cc4ccccc4[nH]3)OCCO2)cc1`, the total growth inhibition concentration (TGI) in the test on SR leukemia was greater than 100 µM; in the test on COLO 205 colon, 65.2 µM; in the test with NCI-H23 lung, greater than 100 µM; with NCI-H460 lung, greater than 100 µM; in the test on SK-MEL-2 melanoma it was greater than 100 µM; in the test with HCT-116 colon it was greater than 100 µM. The TGI with 786-0 renal and in the test on HCT-15 colon was greater than 100 µM in each case.
Take `O=C(N/N=C/c1cc(-c2ccccc2Cl)c(-c2ccccc2Cl)o1)c1ccncc1`: the TGI in the test on COLO 205 colon, in the test on NCI-H23 lung, in the test with SK-MEL-2 melanoma, with HCT-116 colon, in the test on 786-0 renal and with NCI-H522 lung was greater than 100 µM in each case.
Regarding `CCO/C=N/C1=C(C#N)C(c2ccc(OC)c(OC)c2)c2c(-c3ccccc3)nn(-c3ccccc3)c2O1` (stereo not drawn), the TGI with COLO 205 colon is 27.1 µM; in the test on HCC-2998 colon, greater than 100 µM; in the test with NCI-H23 lung it was 31.1 µM; with NCI-H460 lung, greater than 100 µM; in the test on SK-MEL-2 melanoma, 43.8 µM; in the test with HCT-116 colon, 28.3 µM. Moreover, the TGI in the test with 786-0 renal came to 29.2 µM; with NCI-H522 lung, 38.2 µM; in the test on HCT-15 colon, 18 µM.
